“And” between values parts separate entries of the source, which are not always exact repeats. Equal entries are not always repeated. Where two headings read alike, the source gives them in different places.
Tests used:
[1] = GI50 given in Tables 4-6 (test not described); assay type: cell-based; details: cell line not stated
[2] = molecular target: T1, AR-LBD PPI interactions with TIF2 and SRC1 coactivators (Homo sapiens, UniProt P10275); test: TIF2 and SRC1 mammalian 2-hybrid assays, results stated jointly; assay type: cell-based; details: for IC50: both M2H assays
T1 construct: AR-LBD amino acids 658-919 expressed as a fusion protein with Gal4-DBD; expressed in transfected cells; host or cells: HEK 293, transient co-transfection
T1 sequence (P10275 659-920): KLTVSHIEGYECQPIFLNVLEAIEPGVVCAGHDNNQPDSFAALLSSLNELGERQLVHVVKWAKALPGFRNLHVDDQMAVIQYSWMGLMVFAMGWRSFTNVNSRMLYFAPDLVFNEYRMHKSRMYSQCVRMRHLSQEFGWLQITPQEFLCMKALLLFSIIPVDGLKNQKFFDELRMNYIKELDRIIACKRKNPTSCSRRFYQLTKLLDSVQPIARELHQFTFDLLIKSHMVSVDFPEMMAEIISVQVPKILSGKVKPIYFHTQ
Text: TIF2 and SRC1 Mammalian 2-Hybrid Assays: The 5×GAL4-TATA-luciferase reporter plasmid was a gift from Dr. Richard Maurer from the Oregon Health and Science University (Gonzalez et al., Cell 1989, 59:675-80), and constructs pGAL4-hAR-658-919 (AR-LBD amino acids 658-919 expressed as a fusion protein with Gal4-DBD) (Askew et al., J Biol Chem 2007, 282:25801-16), pVP16-SRC1 (full-length SRC1 expressed as a fusion with VP16 activation domain) (He et al., J Biol Chem 1999, 274:37219-25) and pVP16-Empty vectors were kindly provided to us by Dr. Elizabeth Wilson, from UNC Chapel Hill. pVP16-TIF2 was generated as described previously (Fancher et al., Assay Drug Dev Technol. 2019, 17:364-386). HEK 293 cells were transiently co-transfected with 5 ng of pGal4-AR-LBD, 10 ng of either pVP16-TIF2 or pVP16-SRC1, and 20 ng of the 5×Gal4-TATA-Luc reporter as described previously (Ibid.). HEK 293 cells were bulk co-transfected with the three plasmids that had been individually incubated with FuGENE® 6 transfection agent (Fugent LLC, Middleton, WI) at a 3:1 ratio for 25 min at room temperature (RT) in serum free media (SFM) and then combined with HEK 293 cells that were suspended in DMEM (Cellgro10013CV) with 2 mM L-glutamine (Invitrogen) that was supplemented with 10% fetal bovine serum, and 5,000 cells in a volume of 40 μL were seeded into the wells of white opaque 384-well assay plates (Greiner Bio-one, #781080) and cultured overnight at 37° C., 5% CO2, and 95% humidity. […] 25 μL of BrightGlo® reagent (Promega, Madison, WI) was added to the plate and the relative luminescence units (RLUs) were captured on a SpectraMax® M5e microtiter plate reader (Molecular Devices, LLC, San Jose, CA).

[3] = molecular target: T2, AR-LBD / TIF2 box III LXXLL peptide (Homo sapiens, UniProt P10275); test: AR-LBD::TIF2 Box III LXXLL peptide binding AlphaScreen assay
T2 construct: The pET28a-AR-LBD (622-919) construct; made in house
T2 sequence (P10275 622-919): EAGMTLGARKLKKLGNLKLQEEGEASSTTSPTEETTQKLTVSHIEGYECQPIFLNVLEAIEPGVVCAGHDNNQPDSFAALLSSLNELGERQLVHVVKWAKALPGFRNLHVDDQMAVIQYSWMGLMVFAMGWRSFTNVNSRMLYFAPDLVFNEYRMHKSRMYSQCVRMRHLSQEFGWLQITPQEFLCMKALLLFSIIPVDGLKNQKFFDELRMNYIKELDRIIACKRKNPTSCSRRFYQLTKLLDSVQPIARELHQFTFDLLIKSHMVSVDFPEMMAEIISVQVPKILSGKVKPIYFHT
Protocol: […] Biotinylated (Biotin-HN-[…]-CONH2; SEQ ID NO: 1) and non-biotinylated TIF2-box-III (738-756) peptide (H2N-[…]-CONH2; SEQ ID NO: 2) were synthesized by the Peptide & Peptoid Synthesis Facility, at the University of Pittsburgh Health Sciences Core Research Facilities. ALPHAScreen® streptavidin donor beads (SA-DB) and nickel chelate acceptor beads (Ni-AB) were purchased from Perkin Elmer (Waltham, MA). The assay was performed in 384-well white opaque plates (Greiner BioOne, #781080). […] 18 μL of the SA-DB bound biotinylated TIF2 peptide mixture was added to the assay plate before 5 μL of compounds were transferred into assay wells and 27 μL of the AlphaScreen® donor and acceptor B bead mixture was added to the plate. 32 wells containing 0.5% DMSO provided maximum controls and 32 wells containing a 500-fold excess of unlabeled TIF2-box-III (75 μM) were used as minimum controls. The combined head-protein-peptide-compound mixture was incubated for 1 h at room temperature in the dark, and then the RLU's were acquired at 520 nm after excitation at 680 nm on an EnVision® plate reader (Perkin Elmer, Waltham, MA) as described previously (Fancher et al., Assay Drug Dev Technol. 2019, 17:364-386).

AR-LBD = molecular target: T3, AR-LBD (Homo sapiens, UniProt P10275); test: H^3-DHT radioligand binding assay
T3 construct: The pET28a-AR-LBD (622-919) construct; made in house
T3 sequence (P10275 622-919): T2 sequence (P10275 622-919)
Protocol: H^3-DHT Radioligand Binding Assay: The His6-AR-LBD H^3-DHT competition binding assay has been described previously (Fancher et al., Assay Drug Dev Technol. 2016, 14:453-477; Fancher et al., Assay Drug Dev Technol. 2019, 17:364-386). Briefly, 96-well Cu^2+-coated plates (ThermoFisher) were incubated overnight at 4° C. with 5 µg per well His6-AR-LBD in 100 μL of PBS. Unbound His6-AR-LBD was aspirated, the plate was washed 3× with 100 μL of 0.05% Tween 20 in PBS and then blocked with 100 μL of 1 mg/mL BSA in PBS for 1 h. After three more washes with 100 μL of PBS and 0.05% Tween 20, 40 μL of PBS was added to wells followed by […] each of diluted compounds and 100 nM H^3-DHT transferred into the wells using a Matrix pipettor. Compounds were tested between 0.098 to 50 μM in the presence of 10 nM H^3-DHT. After 1 h, compounds and H^3-DHT were aspirated and washed 3× with 0.05% Tween 20 in PBS; 100 μL of Microscint™-20 micro-scintillation cocktail buffer (Perkin Elmer, Waltham, MA) was added to each well, plates were sealed with adhesive plastic covers; and the counts per minute (CPMs) were captured in a TopCount NXT microtiter plate reader (Perkin Elmer, Waltham, MA).

[4] = IC50s in TIF2 and SRC-1 M2H assays (potency range in words)
[5] = AlphaScreen, read-out: Inhibition DHT-induced TIF2 NR Box 3 LXXLL peptide binding to AR-LBD IC50
[6] = read-out: IC50 in TIF2 LXXLL-peptide AR-LBD binding assay (potency range in words)
[7] = 10 nM H^3-DHT, read-out: Inhibition H^3-DHT ligand binding to AR-LBD IC50
[8] = read-out: IC50s, DHT-induced AR-LBD PPI interactions with TIF2 and SRC1 coactivators
[9] = read-out: IC50 in H^3-DHT binding assay (potency range in words)

Structure (SMILES)	Fold difference of M2H IC50s to IC50 for AR-TIF2 PPI disruption [2]	IC50 [2, 4]	IC50 [3, 5]	IC50 [3, 6]	IC50 (AR-LBD; 10 nM H^3-DHT, listed as 1, read-out: Inhibition H^3-DHT ligand binding to AR-LBD IC50)	IC50 (AR-LBD; [7])	IC50 in TIF2 LXXLL-peptide AR-LBD binding assay (potency range in words) [3]	IC50 [2, 8]	Fold M2H IC50s less than corresponding AR-TIF2 biosensor IC50s [2]	Fold lower IC50 for TIF2 than SRC1 ([2]; CoA selectivity)	IC50 (AR-LBD; [9])	GI50 [1]
Cc1nc(N)cc(N2CCOc3c(O)cc(-c4ccccc4C)cc3C2)n1 [Compound S1-2]		1 to 10 µM	21 to 83 µM			> 100 µM	mid 44 μM					51.9 µM
Cc1ccccc1-c1cc(O)c2c(c1)CN(c1cc(N)ncn1)CCO2 [Compound S1-4]												> 100 µM
Cc1nsc(NC(=O)N2CCC(Sc3ccccc3C)CC2)n1 [Compound S2-6]		< 1 µM	49.5 µM	10 to 100 µM		> 100 µM			~10 fold	~5 fold		> 100 µM
Cc1nsc(NC(=O)N2CCC(Cn3ccnc3)CC2)n1 [Compound S2-7]												> 100 µM
Cc1c(-c2ccccc2F)[nH]c2ccc(CNC(=O)CCc3cn[nH]c3)cc12 [Compound S3-11]		1 to 10 µM	50 µM and 45.2 µM	10 to 100 µM		> 100 µM		< 10 µM				> 100 µM
Cc1c(-c2ccccc2F)[nH]c2ccc(CNC(=O)CCc3cnccn3)cc12 [Compound S3-12]		1 to 10 µM	> 100 µM			> 100 µM		< 10 µM				> 100 µM
Cc1c(-c2ccccc2F)[nH]c2ccc(CNC(=O)c3ccc(CO)o3)cc12 [Compound S3-14]		1 to 10 µM		10 to 100 µM		63 µM		< 10 µM			10 to 100 µM	> 100 µM
Cc1c(-c2ccc(F)cc2)[nH]c2ccc(CNC(=O)c3ccc(CO)o3)cc12 [Compound S3-15]		1 to 10 µM		10 to 100 µM		> 100 µM		< 10 µM				> 100 µM
Cc1cccc2c(-c3ccc(O)c(F)c3)c[nH]c12 [Compound S3-17]		10 to 100 µM		1 to 10 µM		56 µM		10 to 20 µM			10 to 100 µM	99 µM
CNC(=O)c1ccc(-c2c[nH]c3c(C)cccc23)cc1 [Compound S3-21]		10 to 100 µM	> 100 µM			> 100 µM		10 to 20 µM				> 100 µM

Now from value to compound, other results behind:

Fold difference of M2H IC50s to IC50 for AR-TIF2 PPI disruption [2]	IC50 [2, 4]	IC50 [3, 5]	IC50 [3, 6]	IC50 (AR-LBD; 10 nM H^3-DHT, listed as 1, read-out: Inhibition H^3-DHT ligand binding to AR-LBD IC50)	IC50 (AR-LBD; [7])	IC50 in TIF2 LXXLL-peptide AR-LBD binding assay (potency range in words) [3]	IC50 [2, 8]	Fold M2H IC50s less than corresponding AR-TIF2 biosensor IC50s [2]	Fold lower IC50 for TIF2 than SRC1 ([2]; CoA selectivity)	IC50 (AR-LBD; [9])	Structure (SMILES)	GI50 [1]
~5 fold	1 to 10 µM	21 to 83 µM and 12 µM	10 to 100 µM	26.7 µM	~44 µM and ~27 µM						Cc1ccccc1-c1cc(O)c2c(c1)CN(c1nc(C(N)=O)cs1)CCO2 [Compound S1-1]	> 100 µM
	1 to 10 µM	21 to 83 µM			> 100 µM	mid 44 μM					Cc1ccccc1-c1cc(O)c2c(c1)CN(c1nccs1)CCO2 [Compound S1-3]	> 100 µM
	10 to 100 µM	> 100 µM			> 100 µM		20 to 42 µM				COc1cc(-c2ccc(C)s2)cc2c1OCCN(c1nc(C(N)=O)cs1)C2 [Compound S1-5]	> 100 µM
	10 to 100 µM	92 µM	10 to 100 µM		> 100 µM		10 to 20 µM				CC(=O)NCCC(=O)NCc1ccc2[nH]c(-c3ccccc3F)c(C)c2c1 [Compound S3-13]	> 100 µM

From patent publication US20260083751A1, “ALLOSTERIC MODULATORS OF ANDROGEN RECEPTOR COACTIVATOR RECRUITMENT FOR CRPC THERAPY” (University of Pittsburgh – Of the Commonwealth System of …, priority 2022, published 2026)
